Columns and labels:
[1] = Stability of mini-tablets containing clavulanic acid compared to a clavulanic acid reference sample as a function of time; assay type: physicochemical
Method: (§1) The 8 mini-tablets prepared in Example 1 and an amoxicillin reference sample were analyzed for stability. Stability data for clavulanic acid in mini-tablets compared to a clavulanic acid reference sample were also analyzed for stability.

[2] = Stability of mini-tablets (Series 1-8) compared to an amoxicillin reference sample as a function of time; assay type: physicochemical
Method: as §1

Stability (clavulanic acid) as a function of time ([1]; 0 weeks) [%] | Stability (clavulanic acid) as a function of time ([1]; 1 week) [%] | Stability (clavulanic acid) as a function of time ([1]; 26 weeks) [%] | Stability (amoxicillin) as a function of time ([2]; 0 weeks) | Stability (amoxicillin) as a function of time ([2]; 1 week) | Stability (amoxicillin) as a function of time ([2]; 49 weeks) | SMILES
100 | 86.4 | 88.4 |  |  |  | O=C(O)[C@H]1/C(=C/CO)O[C@@H]2CC(=O)N21 [Clavulanic acid reference, Clavulanic acid]
 |  |  | 100.0 | 100.0 | 97.8 | CC1(C)S[C@@H]2[C@H](NC(=O)[C@H](N)c3ccc(O)cc3)C(=O)N2[C@H]1C(=O)O [Amoxicillin reference, Amoxicillin]
